As a reminder, the IC50 is the midpoint of a concentration-inhibition curve. The term EC25 denotes the concentration needed for an effect of 25%.

Common to all, as to format: functional
The species named for experiment [1] is Rattus norvegicus. The experiment is described as follows: In vitro anti-ischemic potency was determined by measurement of concentration necessary for increase in time to contracture by 25% in the globally ischemic rat hearts.
The species named for experiment [2] is Rattus norvegicus. The experiment is described as follows: Vasorelaxant potency was assessed by measurement of inhibition of methoxamine-contracted rat aorta.
Experiment [3] is filed under the species Rattus norvegicus. The experiment is described as follows: Antiischemic potency was determined by increase in time to contracture at a concentration of 10 uM in the globally ischemic rat hearts.
Experiment [4] in a line: Ratio of anti-ischemic potency and vasorelaxant potency in rat.

Turning to `CC1(C)Oc2ccc(N)cc2[C@@H](/N=C(\NC#N)Nc2ccccc2)[C@@H]1O` (relative stereo), in the experiment filed under Rattus norvegicus [1], the Increase came to 0%. Also, in the experiment listed under Rattus norvegicus [2], the IC50 turned out to be 59.6 µM.
The compound `CC1(C)Oc2ccc(C#N)cc2[C@@H](NC(=O)Nc2ccccc2)[C@@H]1O` registered an EC25 in the experiment listed under Rattus norvegicus [1] of 5.1 µM.
With `CC1(C)Nc2ccc(C#N)cc2[C@@H](/N=C(\NC#N)Nc2ccccc2)[C@@H]1O` (relative stereo), the Increase in the experiment filed under Rattus norvegicus [3] was found to be 0%.
Regarding `CC1(C)C[C@H](NC(=O)Nc2ccccc2)c2cc(C#N)ccc2O1`, the EC25 in the experiment listed under Rattus norvegicus [1] came to 5.3 µM. For the same compound, inhibition in the experiment filed under Rattus norvegicus [2] was half-maximal at 1.8 µM (IC50). Moreover, in experiment [4], the Ratio came out at 2.9.
Turning to `CC1(C)C=C(/N=C(\NC#N)Nc2ccccc2)c2cc(C#N)ccc2O1`, the Increase in the experiment filed under Rattus norvegicus [3] worked out at 0%. For the same compound, half-maximal inhibition in the experiment filed under Rattus norvegicus [2] (IC50) required 6.9 µM.
On to `CC1(C)C=C(NC(=O)Nc2ccccc2)c2cc(C#N)ccc2O1`, for which, in the experiment filed under Rattus norvegicus [3], the Increase stood at 7%. Besides, the IC50 in the experiment filed under Rattus norvegicus [2] amounted to 17 µM.
For the compound `CC1(C)Oc2ccc(C#N)cc2[C@@H](NC(=O)Nc2ccccc2)[C@H]1O`, the EC25 in the experiment filed under Rattus norvegicus [1] was 103 µM. In the experiment filed under Rattus norvegicus [2], this compound registered an IC50 of 6.2 µM. Further, the Ratio in experiment [4] is 16.5.
Compound `CC1(C)C[C@H](NC(=O)Nc2ccccc2)c2cc(C#N)ccc21` showed an EC25 in the experiment listed under Rattus norvegicus [1] of 9.4 µM. The compound also had an IC50 in the experiment listed under Rattus norvegicus [2] of 1.3 µM. In experiment [4], the Ratio came to 7.2.
In the experiment filed under Rattus norvegicus [1], `CC1(C)Oc2ccc(C(F)(F)F)cc2[C@@H](NC(=O)Nc2ccccc2)[C@@H]1O` displayed an EC25 of 2.7 µM. In the experiment listed under Rattus norvegicus [2], this compound showed an IC50 of 1.1 µM. The Ratio in experiment [4] turned out to be 2.5.
Consider `CC1(C)C[C@H](/N=C(\NC#N)Nc2ccccc2)c2cc(C#N)ccc21`, for which the EC25 in the experiment filed under Rattus norvegicus [1] was 22 µM. This compound also yielded an IC50 in the experiment filed under Rattus norvegicus [2] of 2.6 µM. For the same compound, the Ratio in experiment [4] is on record as 8.5.
As for `CC1(C)Oc2ccc(C(F)(F)F)cc2[C@@H](/N=C(\NC#N)Nc2ccccc2)[C@@H]1O` (relative stereo), the 25% effect level in the experiment listed under Rattus norvegicus [1] (EC25) was put at 10 µM. Moreover, 9.2 µM corresponded to half-maximal inhibition in the experiment listed under Rattus norvegicus [2] (IC50). Besides, the Ratio in experiment [4] was determined as 0.5.
Turning to `CC1(C)C[C@H](/N=C(\NC#N)Nc2ccccc2)c2cc(C#N)ccc2O1`, in the experiment filed under Rattus norvegicus [3], the Increase is listed as 0%. Besides, in the experiment listed under Rattus norvegicus [2], the midpoint of inhibition, the IC50, lay at 14 µM.
Turning to `CC1(C)Oc2ccc(C#N)cc2[C@@H](/N=C(\NC#N)Nc2ccccc2)[C@@H]1O` (relative stereo), in the experiment listed under Rattus norvegicus [1], the EC25 stood at 11 µM. 1.4 µM corresponded to half-maximal inhibition in the experiment filed under Rattus norvegicus [2] (IC50). For the same compound, the Ratio in experiment [4] was found to be 7.9.
Regarding `CC(=O)c1ccc2c(c1)[C@@H](/N=C(\NC#N)Nc1ccccc1)[C@H](O)C(C)(C)O2` (relative stereo), in the experiment listed under Rattus norvegicus [1], the EC25 was found to be 8.5 µM. This compound also came in with an IC50 in the experiment filed under Rattus norvegicus [2] of 4 µM. Besides, the Ratio in experiment [4] came to 2.1.
In the case of `CC1(C)c2ccc([N+](=O)[O-])cc2[C@@H](/N=C(\NC#N)Nc2ccccc2)[C@@H]1O` (relative stereo), it took 10.7 µM to reach the 25% level in the experiment listed under Rattus norvegicus [1] (EC25). In experiment [4], the Ratio was determined as 18.8.
In the experiment filed under Rattus norvegicus [1], `CC1(C)Oc2ccc(C#N)cc2[C@@H](N2CCCC2=O)[C@@H]1O` [CROMAKALIM] yielded an EC25 of 8.9 µM. Moreover, the Ratio in experiment [4] was 278.1.
Regarding `CC1(C)Oc2ccc(C#N)cc2[C@@H](/N=C(\NC#N)Nc2ccccc2)[C@H]1O` (relative stereo), the Increase in the experiment filed under Rattus norvegicus [3] stood at 9%.
The compound `N#Cc1ccc2c(c1)[C@@H](NC(=O)Nc1ccccc1)[C@H](O)CO2` showed an Increase in the experiment filed under Rattus norvegicus [3] of 6%.
With `CC(=O)O[C@H]1[C@H](/N=C(\NC#N)Nc2ccccc2)c2cc(C#N)ccc2OC1(C)C` (relative stereo), the EC25 in the experiment listed under Rattus norvegicus [1] came out at 6 µM. Also, the half-maximal inhibitory concentration (IC50) in the experiment listed under Rattus norvegicus [2] is 2.6 µM. Besides, in experiment [4], the Ratio is on record as 2.3.
For `CC(=O)c1ccc2c(c1)[C@@H](NC(=O)Nc1ccccc1)[C@H](O)C(C)(C)O2` the same measures were 4.5 µM, 1.2 µM and 3.8.
As to `N#CN/C(=N\[C@@H]1c2cc(C#N)ccc2OC[C@H]1O)Nc1ccccc1` (relative stereo), the Increase in the experiment filed under Rattus norvegicus [3] is recorded as 0%. Besides, the IC50 in the experiment filed under Rattus norvegicus [2] worked out at 194 µM.
`CC1(C)c2ccc([N+](=O)[O-])cc2[C@@H](NC(=O)Nc2ccccc2)[C@@H]1O` returned a 25% effect concentration (EC25) in the experiment listed under Rattus norvegicus [1] of 6.5 µM. This compound also yielded an IC50 in the experiment filed under Rattus norvegicus [2] of 0.18 µM. Besides, the Ratio in experiment [4] came to 36.1.
The compound `CC1(C)Oc2cc(-c3ncco3)c(-c3ncco3)cc2[C@@H](/N=C(\NC#N)Nc2ccccc2)[C@@H]1O` (relative stereo) displayed an Increase in the experiment listed under Rattus norvegicus [1] of 6%. The same compound returned an IC50 in the experiment listed under Rattus norvegicus [2] of 8.8 µM.
Regarding `CC(=O)O[C@H]1[C@H](NC(=O)Nc2ccccc2)c2cc(C#N)ccc2OC1(C)C`, the Increase in the experiment listed under Rattus norvegicus [3] is listed as 3%. The same compound showed an IC50 in the experiment filed under Rattus norvegicus [2] of 4.4 µM.
`CC1(C)Oc2cc(-c3ncco3)c(-c3ncco3)cc2[C@@H](NC(=O)Nc2ccccc2)[C@@H]1O` returned an EC25 in the experiment listed under Rattus norvegicus [1] of 13 µM. Further, in the experiment filed under Rattus norvegicus [2], the midpoint of inhibition, the IC50, lay at 1.4 µM. Further, the Ratio in experiment [4] is 9.3.

The record behind these values is ChEMBL document CHEMBL1128384, “Cardioselective antiischemic ATP-sensitive potassium channel openers. 2. Structure-activity studies on benzopyranylcyanoguanidines: modification of the benzopyran ring” (J Med Chem, 1995).
